# Source: PMC8064294 (Journal of medicinal chemistry, 2020)
# Tests used:
# [1] = target: T1, ULK1 (NanoLuc-ULK1 fusion) (Homo sapiens, UniProt O75385); assay: ULK1 NanoBRET intracellular kinase target engagement assay in HEK293T cells; format: cell-based; details: HEK293T live cells
# T1 sequence (O75385 1-1050): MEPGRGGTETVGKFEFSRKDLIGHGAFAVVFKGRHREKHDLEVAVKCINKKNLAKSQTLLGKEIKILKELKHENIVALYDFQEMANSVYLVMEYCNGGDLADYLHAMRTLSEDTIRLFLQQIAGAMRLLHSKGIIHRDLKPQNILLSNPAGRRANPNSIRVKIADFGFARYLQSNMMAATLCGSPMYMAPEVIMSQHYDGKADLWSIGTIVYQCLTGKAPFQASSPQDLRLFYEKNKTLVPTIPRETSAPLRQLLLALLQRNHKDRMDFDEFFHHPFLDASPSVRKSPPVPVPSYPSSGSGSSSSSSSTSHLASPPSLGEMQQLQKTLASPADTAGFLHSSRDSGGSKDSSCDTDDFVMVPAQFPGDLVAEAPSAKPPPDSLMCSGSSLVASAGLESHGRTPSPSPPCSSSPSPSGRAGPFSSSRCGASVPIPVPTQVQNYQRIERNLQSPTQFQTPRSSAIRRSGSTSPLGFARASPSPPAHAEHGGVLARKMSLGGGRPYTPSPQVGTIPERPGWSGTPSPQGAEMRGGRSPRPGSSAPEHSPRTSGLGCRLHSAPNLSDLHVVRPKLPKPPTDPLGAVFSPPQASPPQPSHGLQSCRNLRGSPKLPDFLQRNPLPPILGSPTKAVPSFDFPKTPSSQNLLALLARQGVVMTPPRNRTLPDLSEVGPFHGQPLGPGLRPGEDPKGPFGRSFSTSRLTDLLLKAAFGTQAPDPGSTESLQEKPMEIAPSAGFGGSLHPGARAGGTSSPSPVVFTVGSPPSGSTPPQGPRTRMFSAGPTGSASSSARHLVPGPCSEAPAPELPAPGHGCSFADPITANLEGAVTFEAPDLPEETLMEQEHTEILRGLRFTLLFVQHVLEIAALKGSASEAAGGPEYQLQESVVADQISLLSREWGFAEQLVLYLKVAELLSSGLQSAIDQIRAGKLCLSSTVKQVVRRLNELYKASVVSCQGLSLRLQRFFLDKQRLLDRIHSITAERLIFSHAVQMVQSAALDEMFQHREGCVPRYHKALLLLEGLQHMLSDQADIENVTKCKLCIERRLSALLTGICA
# [2] = target: T2, recombinant human ULK1 protein (1-649) (Homo sapiens, UniProt O75385); assay: ULK1 ADP-Glo kinase assay; format: biochemical; details: for ULK1 ADP-Glo potency compared with compound 3: in words
# T2 sequence (O75385 1-649): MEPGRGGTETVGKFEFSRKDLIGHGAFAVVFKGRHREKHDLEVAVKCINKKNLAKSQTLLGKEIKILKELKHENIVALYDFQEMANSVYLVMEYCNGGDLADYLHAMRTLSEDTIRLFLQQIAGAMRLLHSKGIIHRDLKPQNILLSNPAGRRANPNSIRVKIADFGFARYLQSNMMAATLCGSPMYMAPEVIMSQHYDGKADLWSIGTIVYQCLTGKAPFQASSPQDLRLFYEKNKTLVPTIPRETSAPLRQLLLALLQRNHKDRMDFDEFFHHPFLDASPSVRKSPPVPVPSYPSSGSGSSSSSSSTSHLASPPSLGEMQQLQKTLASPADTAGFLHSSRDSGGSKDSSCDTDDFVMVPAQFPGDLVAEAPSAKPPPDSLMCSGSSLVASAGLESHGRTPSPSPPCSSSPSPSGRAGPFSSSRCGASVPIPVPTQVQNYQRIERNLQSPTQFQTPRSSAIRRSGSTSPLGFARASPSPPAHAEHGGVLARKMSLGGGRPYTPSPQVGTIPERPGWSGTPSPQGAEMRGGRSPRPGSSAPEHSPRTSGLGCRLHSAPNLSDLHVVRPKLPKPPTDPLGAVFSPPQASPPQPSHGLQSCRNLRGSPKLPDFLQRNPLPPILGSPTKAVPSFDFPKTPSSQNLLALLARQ
# [3] = mice, stated as noted previously, no data shown, cited from earlier work
# [4] = tested on: autophagic flux in MDA-MB-468 cells expressing mCherry-EGFP-LC3; assay: mCherry-GFP-LC3 FACS autophagic flux assay; format: cell-based, human; details: 48 h
# Kinetic solubility = format: physicochemical
# [5] = tested on: pATG13 (Ser318), ATG13 and ULK1 in liver lysates; assay: PD study, in vivo target engagement in mouse liver; details: mice, 10 mg/kg oral gavage, 2 h post dosing
# MDA-MB-468 cells = assay: Combination dose-response matrix with PARP inhibitors, Combenefit Loewe model; format: cell-based, human; details: combination with niraparib; synergy at 26 0.19–1.7 μM and niraparib 3.8–7.5 μM
# [6] = PK study in mice, plasma concentration by LC-MS/MS; details: single oral dose 30 mg/kg
# [7] = tested on: autophagosomes in MDA-MB-468 cells; assay: TEM imaging of autophagosomes; format: cell-based, human; details: EBSS starved cells, 10 μM
structure (smiles),measurement,setting,value
"Nc1ccc(Nc2ncc(C(F)(F)F)c(NC3CC3)n2)cc1 [compound 23, N^2-(4-Aminophenyl)-N^4-cyclopropyl-5-(trifluoro-methyl)-pyrimidine-2,4-diamine]",ULK1 NanoBRET IC50 (range in words),[1],sub-micromolar range
"FC(F)(F)c1cnc(Nc2ccc3nn[nH]c3c2)nc1NC1CC1 [compound 10, N^2-(1 H-Benzo[d][1,2,3]triazol-6-yl)-N^4-cyclopropyl-5-(trifluoromethyl)pyrimidine-2,4-diamine]",fold more potent than compound 3 in ULK1 ADP-Glo,[2],about 4 fold
CNC(=O)c1ccccc1Oc1nc(Nc2cc(OC)c(OC)c(OC)c2)ncc1Br [compound 1],systemic exposure,[3]; ip dosing,poor systemic exposure
same,oral bioavailability,[3],no measurable oral bioavailability
"FC(F)(F)c1cnc(Nc2ccc3[nH]ccc3c2)nc1NC1CC1 [compound 8, N^4-Cyclopropyl-N^2-(1H-indol-5-yl)-5-(trifluoromethyl)-pyrimidine-2,4-diamine]",ULK1 ADP-Glo potency compared with compound 3,[2],approximately equipotent with 3
"O=C(c1cc(Cc2n[nH]c(=O)c3ccccc23)ccc1F)N1CCN(C(=O)C2CC2)CC1 [olaparib, reference compound]",increase in autophagic flux compared with control cells,[4]; 30 μM,approximately 30%
"FC(F)(F)c1cnc(Nc2cnc3[nH]ccc3c2)nc1NC1CC1 [compound 11, N^4-Cyclopropyl-N^2-(1H-pyrrolo[2,3-b]pyridin-5-yl)-5-(trifluoromethyl)pyrimidine-2,4-diamine]",solubility in PBS (in words),Kinetic solubility,limited solubility
same,ULK1 ADP-Glo potency compared with compound 3,[2],approximately equipotent with 3
"FC(F)(F)c1cnc(Nc2ccc3ncoc3c2)nc1NC1CC1 [compound 15, N^2-(Benzo[d]oxazol-6-yl)-N^4-cyclopropyl-5-(trifluoromethyl)pyrimidine-2,4-diamine]",ULK1 ADP-Glo potency compared with compound 3,[2],approximately equipotent with 3
"O=C1CCCc2cc(Nc3ncc(C(F)(F)F)c(NC4CC4)n3)ccc21 [compound 19, 6-((4-(Cyclopropylamino)-5-(trifluoromethyl)pyrimidin-2-yl)amino)-3,4-dihydronaphthalen-1(2H)-one]",solubility in PBS (in words),Kinetic solubility,limited solubility
"FC(F)(F)c1cnc(Nc2ccc3ncccc3c2)nc1NC1CC1 [compound 16, N^4-Cyclopropyl-N^2-(quinolin-6-yl)-5-(trifluoromethyl)-pyrimidine-2,4-diamine]",ULK1 NanoBRET IC50 (range in words),[1],sub-micromolar range
"COc1ccc(Nc2ncc(C(F)(F)F)c(NC3CC3)n2)cc1OC [compound 26, N^4-Cyclopropyl-N^2-(3,4-dimethoxyphenyl)-5-(trifluoromethyl)pyrimidine-2,4-diamine]",effect on pATG13 (Ser318) in liver,[5],robust inhibition of pATG13 (Ser318)
same,effect on total ATG13 and ULK1 levels in liver,[5],downregulation of total ATG13 and ULK1 levels
same,effect on olaparib-induced increase in autophagic flux,[4]; 10 μM with olaparib 30 μM,significantly suppressed the olaparib-induced increase in autophagic flux to a level similar to that observed in untreated control cells
same,maximum synergy score (Loewe),MDA-MB-468 cells,26
same,Cmax relative to ULK1 NanoBRET IC50,[6],about 3 fold
same,ULK1 NanoBRET IC50 (range in words),[1],sub-micromolar range
same,number of autophagosomes by TEM,[7],decreased the number of autophagosomes to a greater extent than SBI-0206965
